Data set [1] deals with T1, muscle receptors (nicotinic receptors of human muscle) (Homo sapiens, UniProt P02708+P07510+Q07001).
T1 construct: endogenous in cells; host or cells: cell preparations derived from muscle
Nature of the data set: Determination of interaction with muscle. The class given is cell-based. The settings on record: maximal activation (Emax) as percentage of maximal activation induced by (S)-(-)-nicotine. The text has this:
The compounds of the present invention, when employed in effective amounts in accordance with the method of the present invention, lack the ability to elicit activation of nicotinic receptors of human muscle to any significant degree. […] Generally, typical compounds useful in carrying out the present invention activate isotopic rubidium ion flux by less than 20 percent, often by less than 15 percent, and frequently by less than 10 percent, of that elicited by an equal molar amount of (S)-(−)-nicotine.
The determination of the interaction of the compounds with muscle receptors was carried out in accordance with the techniques described in U.S. Pat. No. 5,597,919 to Dull et al., the subject matter of which is already incorporated herein by reference in its entirety. […] The maximal activation for individual compounds (Emax) was determined as a percentage of the maximal activation induced by (S)-(−)-nicotine.

The target in data set [2] is T2, ganglionic receptors (ganglionic-type nicotinic receptors) (Rattus norvegicus, UniProt P04757+P12392).
T2 construct: endogenous in cells; host or cells: cell preparations derived from the adrenal gland
T2 sequence (P04757 26-499): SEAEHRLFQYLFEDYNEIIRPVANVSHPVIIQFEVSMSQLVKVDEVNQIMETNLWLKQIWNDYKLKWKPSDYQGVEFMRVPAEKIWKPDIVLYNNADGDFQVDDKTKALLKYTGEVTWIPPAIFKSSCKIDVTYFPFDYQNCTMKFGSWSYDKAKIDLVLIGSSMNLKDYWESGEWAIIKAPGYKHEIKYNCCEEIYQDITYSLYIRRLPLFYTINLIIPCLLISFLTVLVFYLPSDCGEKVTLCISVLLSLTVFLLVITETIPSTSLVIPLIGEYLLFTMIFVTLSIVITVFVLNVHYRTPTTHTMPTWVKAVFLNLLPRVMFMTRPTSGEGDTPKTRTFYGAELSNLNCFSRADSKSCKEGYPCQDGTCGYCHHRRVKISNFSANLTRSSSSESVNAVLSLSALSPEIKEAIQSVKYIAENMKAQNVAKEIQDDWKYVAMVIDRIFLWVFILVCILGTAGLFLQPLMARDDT
T2 sequence (P12392 21-495): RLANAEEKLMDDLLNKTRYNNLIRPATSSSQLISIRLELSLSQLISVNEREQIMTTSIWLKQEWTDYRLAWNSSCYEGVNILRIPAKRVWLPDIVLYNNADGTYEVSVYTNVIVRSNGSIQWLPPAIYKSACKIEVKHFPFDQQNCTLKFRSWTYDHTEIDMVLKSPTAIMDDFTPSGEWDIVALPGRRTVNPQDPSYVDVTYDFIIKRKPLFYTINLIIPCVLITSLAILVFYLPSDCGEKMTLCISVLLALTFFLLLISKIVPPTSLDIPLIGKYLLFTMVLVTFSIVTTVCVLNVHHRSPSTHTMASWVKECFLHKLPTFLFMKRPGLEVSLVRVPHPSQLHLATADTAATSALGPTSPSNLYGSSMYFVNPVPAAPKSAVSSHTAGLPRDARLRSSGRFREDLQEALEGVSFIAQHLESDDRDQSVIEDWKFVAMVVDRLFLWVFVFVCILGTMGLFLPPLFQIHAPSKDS
Put plainly: Determination of interaction with ganglia. The note with it: maximal activation (Emax) as percentage of maximal activation induced by (S)-(-)-nicotine. The class given is cell-based. From the text: By this is meant that a particular dose of compound resulting in prevention and/or treatment of a CNS disorder is essentially ineffective in eliciting activation of certain ganglionic-type nicotinic receptors. […] As such, the compounds of the present invention have poor ability to cause isotopic rubidium ion flux through nicotinic receptors in cell preparations derived from the adrenal gland. Generally, the compounds useful in the present invention activate isotopic rubidium ion flux by less than 25 percent, often by less than 15 percent, frequently by less than 10 percent, and even essentially 0 percent, of that elicited by an equal molar amount of (S)-(−)-nicotine.
The determination of the interaction of the compounds with ganglionic receptors was carried out in accordance with the techniques described in U.S. Pat. No. 5,597,919 to Dull et al., the subject matter of which is already incorporated herein by reference in its entirety. […] The maximal activation for individual compounds (Emax) was determined as a percentage of the maximal activation induced by (S)-(−)-nicotine.

Data set [3] concerns the target T3, high affinity CNS nicotinic receptors (Rattus norvegicus, UniProt P09483+P12390).
T3 construct: from tissue
Nature of the data set: biochemical. Type of data set: binding. The note with it: calculated from IC50 values using the method of Cheng et al.

Data set [4] has as its system CNS nicotinic receptors (dopamine release). Put plainly: Determination of dopamine release. The class given is cell-based. The settings on record: for Emax: read-out: Dopamine Release Emax.
Where [5] appears, read: read-out: Dopamine Release EC50 (nM).

Counter-ions that a name gives are not always drawn. Like-named read-outs stand apart in the source and are kept apart here.

T3 sequence (P09483 31-630): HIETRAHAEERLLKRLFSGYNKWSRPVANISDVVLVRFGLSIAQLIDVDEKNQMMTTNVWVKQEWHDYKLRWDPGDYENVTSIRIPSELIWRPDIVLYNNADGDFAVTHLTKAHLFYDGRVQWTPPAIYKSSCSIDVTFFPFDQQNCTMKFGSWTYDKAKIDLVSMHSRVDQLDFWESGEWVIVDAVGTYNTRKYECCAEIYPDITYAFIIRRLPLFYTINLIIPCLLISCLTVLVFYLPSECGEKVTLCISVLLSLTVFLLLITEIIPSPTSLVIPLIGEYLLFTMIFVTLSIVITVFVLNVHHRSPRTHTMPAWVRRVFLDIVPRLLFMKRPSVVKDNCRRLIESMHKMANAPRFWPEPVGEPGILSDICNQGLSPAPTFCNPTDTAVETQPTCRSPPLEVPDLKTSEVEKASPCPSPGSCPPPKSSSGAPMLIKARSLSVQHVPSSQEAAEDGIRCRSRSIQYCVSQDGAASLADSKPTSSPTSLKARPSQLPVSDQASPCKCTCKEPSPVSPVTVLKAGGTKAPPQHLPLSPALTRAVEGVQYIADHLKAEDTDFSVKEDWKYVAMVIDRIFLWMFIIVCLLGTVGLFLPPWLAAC
T3 sequence (P12390 25-500): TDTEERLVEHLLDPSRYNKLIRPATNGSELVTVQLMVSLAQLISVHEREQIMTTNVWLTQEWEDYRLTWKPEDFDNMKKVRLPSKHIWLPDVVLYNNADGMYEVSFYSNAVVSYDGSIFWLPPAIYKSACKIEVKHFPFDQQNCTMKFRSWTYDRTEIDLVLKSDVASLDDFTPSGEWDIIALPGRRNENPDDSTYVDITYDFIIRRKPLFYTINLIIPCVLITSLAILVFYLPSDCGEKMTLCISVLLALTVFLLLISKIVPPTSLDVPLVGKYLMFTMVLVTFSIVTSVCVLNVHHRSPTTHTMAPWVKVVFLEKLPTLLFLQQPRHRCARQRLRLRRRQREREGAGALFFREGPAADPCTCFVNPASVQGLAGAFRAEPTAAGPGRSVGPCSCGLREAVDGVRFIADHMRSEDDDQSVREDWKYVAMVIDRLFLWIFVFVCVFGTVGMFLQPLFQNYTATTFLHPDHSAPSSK
T1 sequence (P02708 21-457): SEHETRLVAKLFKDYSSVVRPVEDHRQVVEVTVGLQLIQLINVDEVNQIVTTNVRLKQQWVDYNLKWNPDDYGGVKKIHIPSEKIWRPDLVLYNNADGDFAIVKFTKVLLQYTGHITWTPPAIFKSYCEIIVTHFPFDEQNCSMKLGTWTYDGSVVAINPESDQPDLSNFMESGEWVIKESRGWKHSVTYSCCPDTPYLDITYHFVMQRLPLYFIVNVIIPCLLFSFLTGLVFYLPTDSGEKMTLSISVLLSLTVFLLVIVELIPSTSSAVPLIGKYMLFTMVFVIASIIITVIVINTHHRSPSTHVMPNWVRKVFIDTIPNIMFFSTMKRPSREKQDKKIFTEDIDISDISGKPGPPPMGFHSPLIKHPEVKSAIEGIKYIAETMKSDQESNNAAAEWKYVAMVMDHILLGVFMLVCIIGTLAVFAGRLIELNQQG
T1 sequence (P11230 24-501 partner): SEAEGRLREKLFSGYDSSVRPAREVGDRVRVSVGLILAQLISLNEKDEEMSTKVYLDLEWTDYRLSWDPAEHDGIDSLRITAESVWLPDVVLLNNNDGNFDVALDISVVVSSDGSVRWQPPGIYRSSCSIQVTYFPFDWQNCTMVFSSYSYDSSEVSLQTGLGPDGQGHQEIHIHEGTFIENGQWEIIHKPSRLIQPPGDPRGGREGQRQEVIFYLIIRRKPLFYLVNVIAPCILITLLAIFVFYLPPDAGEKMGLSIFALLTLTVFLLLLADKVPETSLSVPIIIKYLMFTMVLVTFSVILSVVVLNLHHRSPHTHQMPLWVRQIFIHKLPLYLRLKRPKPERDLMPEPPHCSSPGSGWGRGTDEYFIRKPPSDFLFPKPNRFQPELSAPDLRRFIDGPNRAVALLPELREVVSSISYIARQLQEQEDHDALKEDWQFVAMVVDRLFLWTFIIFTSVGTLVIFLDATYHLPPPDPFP
T1 sequence (Q07001 22-517): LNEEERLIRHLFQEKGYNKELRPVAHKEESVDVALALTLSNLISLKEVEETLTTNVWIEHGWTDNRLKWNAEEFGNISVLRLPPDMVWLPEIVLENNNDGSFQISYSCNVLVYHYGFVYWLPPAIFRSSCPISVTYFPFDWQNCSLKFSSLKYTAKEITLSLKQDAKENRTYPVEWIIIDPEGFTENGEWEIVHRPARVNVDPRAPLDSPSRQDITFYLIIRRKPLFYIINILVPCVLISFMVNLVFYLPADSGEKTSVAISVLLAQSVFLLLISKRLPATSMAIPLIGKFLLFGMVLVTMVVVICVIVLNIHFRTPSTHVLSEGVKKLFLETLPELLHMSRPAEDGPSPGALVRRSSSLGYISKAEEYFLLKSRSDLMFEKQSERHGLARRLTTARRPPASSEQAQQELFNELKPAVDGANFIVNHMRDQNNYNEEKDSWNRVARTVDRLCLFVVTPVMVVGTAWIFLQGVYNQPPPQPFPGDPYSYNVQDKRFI
T1 sequence (P07510 23-517): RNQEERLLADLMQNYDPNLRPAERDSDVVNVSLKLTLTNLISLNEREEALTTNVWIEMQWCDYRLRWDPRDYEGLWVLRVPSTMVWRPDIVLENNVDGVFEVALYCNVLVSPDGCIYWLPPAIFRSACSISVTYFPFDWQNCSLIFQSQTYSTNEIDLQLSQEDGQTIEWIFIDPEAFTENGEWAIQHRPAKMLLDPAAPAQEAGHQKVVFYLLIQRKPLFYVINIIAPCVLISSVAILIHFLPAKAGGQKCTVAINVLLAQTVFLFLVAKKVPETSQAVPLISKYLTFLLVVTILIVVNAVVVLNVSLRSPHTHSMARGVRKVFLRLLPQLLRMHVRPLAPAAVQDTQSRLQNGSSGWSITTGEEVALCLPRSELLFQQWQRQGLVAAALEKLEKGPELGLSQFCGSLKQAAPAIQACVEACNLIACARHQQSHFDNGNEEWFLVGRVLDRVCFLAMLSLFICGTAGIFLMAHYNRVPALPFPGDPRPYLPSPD

A word on the Ki: it is the equilibrium dissociation constant of an inhibitor or competing ligand from its target. Turning to `CNCC/C=C/c1cncc(OC(C)C)c1` [Sample No. 4, (E)-N-Methyl-4-[3-(5-isopropoxypyridin)yl]-3-buten-1-amine], the “Muscle Effect (% nicotine)” value in data set [1] is reported as 8 % nicotine. Further, the “Ganglion Effect (% nicotine)” value in data set [2] is reported as <15 % nicotine. For the same molecule, the Ki in data set [3] is 6 nM.
As a reminder, the EC50 is the midpoint of the concentration-response curve. On to `CNCC/C=C/c1cncc(-c2ccccc2)c1` [Sample No. 8, (E)-N-Methyl-4-[3-(5-phenylpyridin)yl]-3-buten-1-amine], for which, in data set [1], the “Muscle Effect (% nicotine)” value is reported as 8 % nicotine. For the same molecule, the EC50 in data set [4] (setting [5]) is > 100000 nM. In addition, the “Ganglion Effect (% nicotine)” value in data set [2] was 0 % nicotine. Further, in data set [3], the Ki is 184 nM.
One may read the Emax as the size of the effect at its maximum, as opposed to the concentration needed. Regarding `CCOc1cncc(/C=C/CCNC)c1` [Sample No. 7, (E)-N-Methyl-4-[3-(5-ethoxypyridin)yl]-3-buten-1-amine Sesquifumarate], the “Muscle Effect (% nicotine)” value in data set [1] is 3 % nicotine. In data set [4] (read-out: Dopamine Release EC50), the EC50 stood at 276 nM. Further, the Emax in data set [4] is 70%. Moreover, the “Ganglion Effect (% nicotine)” value in data set [2] is reported as <15 % nicotine. In addition, in data set [3], the Ki was 5 nM.
With `CNCC/C=C/c1cncc(N)c1` [Sample No. 9, (E)-N-methyl-4-[3-(5-aminopyridin)yl]-3-buten-1-amine], in data set [1], the “Muscle Effect (% nicotine)” value amounted to 4 % nicotine. Further, the EC50 in data set [4] (setting [5]) turned out to be 2000 nM. Besides, the Emax in data set [4] came to 85%. Also, the “Ganglion Effect (% nicotine)” value in data set [2] worked out at 4 % nicotine. Moreover, the Ki in data set [3] was 658 nM.
Broadly, the melting point is the temperature of the solid-liquid transition. `NCC/C=C/c1cncc(Br)c1` (as salt: fumarate) [Sample No. 2, (E)-4-[3-(5-Bromopyridin)yl]-3-buten-1-amine Hemifumarate] showed a melting point of 175 to 176.5 °C.
As for `NCC/C=C/c1cccnc1.O=C(O)/C=C/C(=O)O.O=C(O)/C=C/C(=O)O` [Sample No. 6, (E)-4-(3-pyridinyl)-3-buten-1-amine difumarate], the “Muscle Effect (% nicotine)” value in data set [1] was found to be 15 % nicotine. Moreover, in data set [4] (setting [5]), the EC50 worked out at 5020 nM. In addition, the Emax in data set [4] turned out to be 81%. Moreover, the “Ganglion Effect (% nicotine)” value in data set [2] is reported as 23 % nicotine. Moreover, the Ki in data set [3] was 119 nM.
In the case of `CN1CCC[C@H]1c1cccnc1` [Sample No. C-1, (S)-(−)-nicotine, reference compound], in data set [1], the “Muscle Effect (% nicotine)” value was 100 % nicotine. Also, the “Ganglion Effect (% nicotine)” value in data set [2] was 100 % nicotine.
As for `CNCC/C=C/c1cncc(Oc2ccccc2)c1` [Sample No. 3, (E)-N-Methyl-4-[3-(5-phenoxypyridin)yl]-3-buten-1-amine], the “Muscle Effect (% nicotine)” value in data set [1] is on record as 5 % nicotine. In addition, the EC50 in data set [4] (setting [5]) was 114 nM. The “Ganglion Effect (% nicotine)” value in data set [2] is <15 % nicotine. Besides, the Ki in data set [3] was 21 nM.
Take `CNCC/C=C/c1cncc(COC)c1` [Sample No. 5, (E)-N-Methyl-4-[3-(5-methoxymethylpyridin)yl]-3-buten-1-amine]: in data set [1], the “Muscle Effect (% nicotine)” value came out at 13 % nicotine. In addition, the EC50 in data set [4] (setting [5]) was 16000 nM. Besides, the “Ganglion Effect (% nicotine)” value in data set [2] was 0 % nicotine. In data set [3], the Ki was 130 nM.
With `CNCC/C=C/c1cncc(OCc2ccccc2)c1` [Sample No. 1, (E)-N-Methyl-4-[3-(5-benzyloxypyridin)yl]-3-buten-1-amine], the “Muscle Effect (% nicotine)” value in data set [1] was determined as 12 % nicotine. The EC50 in data set [4] (setting [5]) was 4000 nM. Besides, the “Ganglion Effect (% nicotine)” value in data set [2] amounted to 0 % nicotine. Further, the Ki in data set [3] is 5 nM.
Regarding `NCC/C=C/c1cncc(Br)c1` [Sample No. 2, (E)-4-[3-(5-Bromopyridin)yl]-3-buten-1-amine Hemifumarate], the “Muscle Effect (% nicotine)” value in data set [1] came to 8 % nicotine. For the same molecule, in data set [4] (setting [5]), the concentration giving a half-maximal response (EC50) was 2400 nM. In data set [4], the Emax was 107%. Further, the “Ganglion Effect (% nicotine)” value in data set [2] is on record as 11 % nicotine. The Ki in data set [3] was 79 nM.

The values above are taken from patent US6531606B1, “Pharmaceutical compositions incorporating aryl substituted olefinic amine compounds” (Targacept, Inc., priority 1997, dated 2003).
